Results from patent US20080269241A1, “BICYCLIC AMINOPROPYL TETRAHYDRO-PYRAZOLO-PYRIDINE MODULATORS OF CATHEPSIN S” (priority 2007, published 2008).

Target: T1, human cathepsin S (CatS) (Homo sapiens, UniProt P25774)
T1 construct: made in house; host or cells: baculovirus system (insect cells)
Test: Recombinant human cathepsin S (CatS) fluorogenic substrate inhibition assay
Assay type: biochemical
Conditions: recombinant human CatS, 10 μM Z-Valine-Valine-Arginine-AMC, pH 5.0; average of results obtained; read-out: CatS IC50
Experimental: Recombinant human cathepsin S (CatS) was expressed in the baculovirus system and purified in one step with a thiopropyl-sepharose column. […] The assay is run in 150 mM sodium acetate pH 5.0 containing 1.5 mM DTT and 150 mM NaCl. […] Measurements are taken every min for 20 min. The rate is calculated from the slope of the increase in fluorescence and the percent inhibition is calculated from this.

T1 sequence (P25774 115-331): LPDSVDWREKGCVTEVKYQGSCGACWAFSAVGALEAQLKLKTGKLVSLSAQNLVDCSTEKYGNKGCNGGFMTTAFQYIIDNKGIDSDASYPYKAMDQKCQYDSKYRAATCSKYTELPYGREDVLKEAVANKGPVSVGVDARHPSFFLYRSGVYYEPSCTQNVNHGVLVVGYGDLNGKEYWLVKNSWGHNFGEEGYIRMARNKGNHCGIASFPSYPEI

SMILES	IC50 [nM]
CS(=O)(=O)N1CCc2c(c(-c3ccc(C(F)(F)F)c(CNC(=O)c4ccc(Cl)s4)c3)nn2CC(O)CN2CCC(N3CCCC3=O)CC2)C1 (stereo not shown) [Example 6, 5-Chloro-thiophene-2-carboxylic acid 5-(1-{2-hydroxy-3-[4-(2-oxo-pyrrolidin-1-yl)-piperidin-1-yl]-propyl}-5-methanesulfonyl-4,5,6,7-tetrahydro-1H-pyrazolo[4,3-c]pyridin-3-yl)-2-trifluoromethyl-benzylamide]	30
CS(=O)(=O)N1CCc2c(c(-c3ccc(Cl)c(CNC(=O)c4ccc(F)cc4)c3)nn2CC(O)CN2CCC(N3CCCC3)CC2)C1 (stereo not shown) [Example 14, N-(2-Chloro-5-{1-[2-hydroxy-3-(4-pyrrolidin-1-yl-piperidin-1-yl)-propyl]-5-methanesulfonyl-4,5,6,7-tetrahydro-1H-pyrazolo[4,3-c]pyridin-3-yl}-benzyl)-4-fluoro-benzamide]	100
CS(=O)(=O)N1CCc2c(c(-c3ccc(C(F)(F)F)c(CNC(=O)c4ccc(F)cc4)c3)nn2CC(O)CN2CCC(N3CCCC3=O)CC2)C1 (stereo not shown) [Example 17, 4-Fluoro-N-[5-(1-{2-hydroxy-3-[4-(2-oxo-pyrrolidin-1-yl)-piperidin-1-yl]-propyl}-5-methanesulfonyl-4,5,6,7-tetrahydro-1H-pyrazolo[4,3-c]pyridin-3-yl)-2-trifluoromethyl-benzyl]-benzamide]	20
CC(C)=CC(=O)NCc1cc(-c2nn(CC(O)CN3CCC(N4CCOCC4)CC3)c3c2CN(S(C)(=O)=O)CC3)ccc1C(F)(F)F (stereo not shown) [Example 30, 3-Methyl-but-2-enoic acid 5-{1-[2-hydroxy-3-(4-morpholin-4-yl-piperidin-1-yl)-propyl]-5-methanesulfonyl-4,5,6,7-tetrahydro-1H-pyrazolo[4,3-c]pyridin-3-yl}-2-trifluoromethyl-benzylamide]	40
CC(C)NC(=O)NCc1cc(-c2nn(CCCN3CCC(N4CCCC4=O)CC3)c3c2CN(S(C)(=O)=O)CC3)ccc1C(F)(F)F [Example 44, 1-Isopropyl-3-[5-(5-methanesulfonyl-1-{3-[4-(2-oxo-pyrrolidin-1-yl)-piperidin-1-yl]-propyl}-4,5,6,7-tetrahydro-1H-pyrazolo[4,3-c]pyridin-3-yl)-2-trifluoromethyl-benzyl]-urea]	160
CS(=O)(=O)N1CCc2c(c(-c3ccc(C(F)(F)F)c(CNC(=O)N4CCOCC4)c3)nn2CCCN2CCC(N3CCCC3=O)CC2)C1 [Example 45, Morpholine-4-carboxylic acid 5-(5-methanesulfonyl-1-{3-[4-(2-oxo-pyrrolidin-1-yl)-piperidin-1-yl]-propyl}-4,5,6,7-tetrahydro-1H-pyrazolo[4,3-c]pyridin-3-yl)-2-trifluoromethyl-benzylamide]	80
Cc1ccsc1C(=O)NCc1cc(-c2nn(CC(O)CN3CCC(N4CCCC4=O)CC3)c3c2CN(S(C)(=O)=O)CC3)ccc1C(F)(F)F (stereo not shown) [Example 49, 3-Methyl-thiophene-2-carboxylic acid 5-(1-{2-hydroxy-3-[4-(2-oxo-pyrrolidin-1-yl)-piperidin-1-yl]-propyl}-5-methanesulfonyl-4,5,6,7-tetrahydro-1H-pyrazolo[4,3-c]pyridin-3-yl)-2-trifluoromethyl-benzylamide]	160

The remaining molecules from weak to strong by IC50, led by results:

IC50 [nM]	SMILES
1540	CN(C)CC(=O)NCc1cc(-c2nn(CCCN3CCC(N4CCCC4=O)CC3)c3c2CN(S(C)(=O)=O)CC3)ccc1C(F)(F)F [Example 38, 2-Dimethylamino-N-[5-(5-methanesulfonyl-1-{3-[4-(2-oxo-pyrrolidin-1-yl)-piperidin-1-yl]-propyl}-4,5,6,7-tetrahydro-1H-pyrazolo[4,3-c]pyridin-3-yl)-2-trifluoromethyl-benzyl]-acetamide]
480	CS(=O)(=O)N1CCc2c(c(-c3ccc(C(F)(F)F)c(CNC(=O)Cc4ccccc4)c3)nn2CCCN2CCC(N3CCCC3=O)CC2)C1 [Example 37, N-[5-(5-Methanesulfonyl-1-{3-[4-(2-oxo-pyrrolidin-1-yl)-piperidin-1-yl]propyl}-4,5,6,7-tetrahydro-1H-pyrazolo[4,3-c]pyridin-3-yl)-2-trifluoromethyl-benzyl]-2-phenyl-acetamide]
410	CSC(=O)NCc1cc(-c2nn(CCCN3CCC(N4CCCC4=O)CC3)c3c2CN(S(C)(=O)=O)CC3)ccc1C(F)(F)F [Example 46, [5-(5-Methanesulfonyl-1-{3-[4-(2-oxo-pyrrolidin-1-yl)-piperidin-1-yl]-propyl}-4,5,6,7-tetrahydro-1H-pyrazolo[4,3-c]pyridin-3-yl)-2-trifluoromethyl-benzyl]-thiocarbamic acid S-methyl ester]
300	CC(C)CCNCc1cc(-c2nn(CCCN3CCC(N4CCCC4=O)CC3)c3c2CN(S(C)(=O)=O)CC3)ccc1C(F)(F)F [Example 47, 1-{1-[3-(5-Methanesulfonyl-3-{3-[(3-methyl-butylamino)-methyl]-4-trifluoromethyl-phenyl}-4,5,6,7-tetrahydro-pyrazolo[4,3-c]pyridin-1-yl)-propyl]-piperidin-4-yl}-pyrrolidin-2-one]
80	CC(C)CC(=O)NCc1cc(-c2nn(CCCN3CCC(N4CCCC4=O)CC3)c3c2CN(S(C)(=O)=O)CC3)ccc1C(F)(F)F [Example 36, N-[5-(5-Methanesulfonyl-1-{3-[4-(2-oxo-pyrrolidin-1-yl)-piperidin-1-yl]-propyl}-4,5,6,7-tetrahydro-1H-pyrazolo[4,3-c]pyridin-3-yl)-2-trifluoromethyl-benzyl]-3-methyl-butyramide]
80	CC(C)OC(=O)NCc1cc(-c2nn(CCCN3CCC(N4CCCC4=O)CC3)c3c2CN(S(C)(=O)=O)CC3)ccc1C(F)(F)F [Example 43, [5-(5-Methanesulfonyl-1-{3-[4-(2-oxo-pyrrolidin-1-yl)-piperidin-1-yl]-propyl}-4,5,6,7-tetrahydro-1H-pyrazolo[4,3-c]pyridin-3-yl)-2-trifluoromethyl-benzyl]-carbamic acid isopropyl ester]
30	CC(C)=CC(=O)NCc1cc(-c2nn(CCCN3CCC(N4CCCC4=O)CC3)c3c2CN(S(C)(=O)=O)CC3)ccc1C(F)(F)F [Example 42, 3-Methyl-but-2-enoic acid 5-(5-methanesulfonyl-1-{3-[4-(2-oxo-pyrrolidin-1-yl)-piperidin-1-yl]-propyl}-4,5,6,7-tetrahydro-1H-pyrazolo[4,3-c]pyridin-3-yl)-2-trifluoromethyl-benzylamide]
30	CS(=O)(=O)N1CCc2c(c(-c3ccc(C(F)(F)F)c(CNC(=O)c4ccc(Br)s4)c3)nn2CC(O)CN2CCC(N3CCCC3=O)CC2)C1 (stereo not shown) [Example 48, 5-Bromo-thiophene-2-carboxylic acid 5-(1-{2-hydroxy-3-[4-(2-oxo-pyrrolidin-1-yl)-piperidin-1-yl]-propyl}-5-methanesulfonyl-4,5,6,7-tetrahydro-1H-pyrazolo[4,3-c]pyridin-3-yl)-2-trifluoromethyl-benzylamide]
20	CS(=O)(=O)N1CCc2c(c(-c3ccc(Cl)c(CNC(=O)c4ccc(F)cc4)c3)nn2CC(O)CN2CCC(N3CCCC3=O)CC2)C1 (stereo not shown) [Example 1, N-[2-Chloro-5-(1-{2-hydroxy-3-[4-(2-oxo-pyrrolidin-1-yl)-piperidin-1-yl]-propyl}-5-methanesulfonyl-4,5,6,7-tetrahydro-1H-pyrazolo[4,3-c]pyridin-3-yl)-benzyl]-4-fluoro-benzamide]
